Columns and labels:
Assay type in all cases: in vivo
Abutilon theophrasti [1] = test: Pre-emergence herbicidal action against ABUTH; conditions: visual score after 3 weeks vs untreated controls
Summary of the method: (§1)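 Visual rating at 3 weeks vs untreated pots; 0–100% scale, 100% = plants died. Treatment: aqueous WP/EC spray onto covering soil, 600–800 l/ha, 0.2% wetter, seeds in sandy loam.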

Alopecurus myosuroides [2] = test: Pre-emergence herbicidal action against ALOMY; conditions: visual score after 3 weeks vs untreated controls
Summary of the method: as §1

Amaranthus retroflexus [3] = test: Pre-emergence herbicidal action against AMARE; conditions: visual score after 3 weeks vs untreated controls
Summary of the method: as §1

Matricaria inodora [4] = test: Pre-emergence herbicidal action against MATIN; conditions: visual score after 3 weeks vs untreated controls
Summary of the method: as §1

Digitaria sanguinalis [5] = test: Pre-emergence herbicidal action against DIGSA; conditions: 80 g/ha
Summary of the method: as §1

Setaria viridis [6] = test: Pre-emergence herbicidal action against SETVI; conditions: 80 g/ha
Summary of the method: as §1

Veronica persica [7] = test: Pre-emergence herbicidal action against VERPE
Summary of the method: as §1

Viola tricolor [8] = test: Pre-emergence herbicidal action against VIOTR
Summary of the method: as §1

Abutilon theophrasti [9] = test: Post-emergence herbicidal action against ABUTH
Summary of the method: (§2)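 Greenhouse pot plants in sandy loam were sprayed at the one-leaf stage, 2 to 3 weeks after sowing, with WP or EC formulations as aqueous suspension or emulsion (600 to 800 l/ha water, 0.2% wetting agent). About 3 weeks later, damage was scored visually against untreated controls as % action (100% = dead, 0% = like control).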

Pharbitis purpurea = test: Post-emergence herbicidal action against PHBPU; conditions: visual assessment about 3 weeks after treatment
Summary of the method: as §2

Digitaria sanguinalis [10] = test: Post-emergence herbicidal action against DIGSA; conditions: 20 g/ha
Method: Seeds of monocotyledonous and dicotyledonous weed and crop plants are laid out in sandy loam soil in wood-fiber pots, covered with soil and cultivated in a greenhouse under good growth conditions. 2 to 3 weeks after sowing, the test plants are treated at the one-leaf stage. The compounds of the invention, formulated in the form of wettable powders (WP) or as emulsion concentrates (EC), are then sprayed onto the green parts of the plants in the form of an aqueous suspension or emulsion at a water application rate equivalent to 600 to 800 l/ha, with addition of 0.2% wetting agent. After the test plants have been left to stand in the greenhouse under optimal growth conditions for about 3 weeks, the action of the preparations is assessed visually in comparison to untreated controls (herbicidal action in percent (%): 100% activity=the plants have died, 0% activity=like control plants). […] The tables below illustrate, in an illustrative manner, the post-emergence herbicidal action of the compounds of the invention, the herbicidal activity being stated in percent.

Setaria viridis [11] = test: Post-emergence herbicidal action against SETVI; conditions: visual assessment about 3 weeks after treatment
Summary of the method: as §2

Viola tricolor [12] = test: Post-emergence herbicidal action against VIOTR
Summary of the method: as §2

Avena fatua [13] = test: Pre-emergence herbicidal action against AVEFA; conditions: 80 g/ha; visual score after 3 weeks vs untreated controls
From the text: (§3) Seeds of monocotyledonous and dicotyledonous weed plants and crop plants are laid out in sandy loam soil in wood-fiber pots and covered with soil. The compounds of the invention, formulated in the form of wettable powders (WP) or as emulsion concentrates (EC), are then applied to the surface of the covering soil in the form of an aqueous suspension or emulsion at a water application rate equivalent to 600 to 800 l/ha, with addition of 0.2% wetting agent. After the treatment, the pots are placed in a greenhouse and kept under good growth conditions for the trial plants. The damage to the test plants is scored visually after a test period of 3 weeks by comparison with untreated controls (herbicidal activity in percent (%): 100% activity=the plants have died, 0% activity=like control plants). […] The tables below illustrate, in an illustrative manner, the post-emergence herbicidal action of the compounds of the invention, the herbicidal activity being stated in percent.

Echinochloa crus-galli [14] = test: Pre-emergence herbicidal action against ECHCG; conditions: 80 g/ha; visual score after 3 weeks vs untreated controls
Summary of the method: as §1

Lolium rigidum = test: Pre-emergence herbicidal action against LOLRI; conditions: 80 g/ha
From the text: as §3

Polygonum convolvulus = test: Pre-emergence herbicidal action against POLCO; conditions: 80 g/ha
From the text: as §3

Amaranthus retroflexus [15] = test: Post-emergence herbicidal action against AMARE; conditions: visual assessment about 3 weeks after treatment
Summary of the method: as §2

Avena fatua [16] = test: Post-emergence herbicidal action against AVEFA; conditions: 20 g/ha, visual assessment about 3 weeks after treatment
Summary of the method: as §2

Echinochloa crus-galli [17] = test: Post-emergence herbicidal action against ECHCG; conditions: visual assessment about 3 weeks after treatment
Summary of the method: as §2

Matricaria inodora [18] = test: Post-emergence herbicidal action against MATIN; conditions: visual assessment about 3 weeks after treatment
Summary of the method: as §2

Veronica persica [19] = test: Post-emergence herbicidal action against VERPE; conditions: visual assessment about 3 weeks after treatment
Summary of the method: as §2

Alopecurus myosuroides [20] = test: Post-emergence herbicidal action against ALOMY
Summary of the method: as §2

| SMILES | Pre-emergence action against ABUTH (Abutilon theophrasti [1]; 80 g/ha) | Pre-emergence action against ALOMY (Alopecurus myosuroides [2]; 80 g/ha) | Pre-emergence action against AMARE (Amaranthus retroflexus [3]; 20 g/ha) | Pre-emergence action against AMARE (Amaranthus retroflexus [3]; 80 g/ha) | Pre-emergence action against MATIN (Matricaria inodora [4]; 80 g/ha) | Pre-emergence action against SETVI (Setaria viridis [6]) | Pre-emergence action against VERPE (Veronica persica [7]; 80 g/ha) | Pre-emergence action against VIOTR (Viola tricolor [8]; 80 g/ha) | Post-emergence action against ABUTH (Abutilon theophrasti [9]; 5 g/ha) | Post-emergence action against ABUTH (Abutilon theophrasti [9]; 20 g/ha) | Post-emergence action against PHBPU in % (Pharbitis purpurea; 20 g/ha) | Post-emergence action against SETVI in % (Setaria viridis [11]; 20 g/ha) | Post-emergence action against VIOTR in % (Viola tricolor [12]; 20 g/ha) | Pre-emergence action against ABUTH (Abutilon theophrasti [1]; 20 g/ha) | Pre-emergence action against ECHCG (Echinochloa crus-galli [14]) | Pre-emergence action against MATIN (Matricaria inodora [4]; 20 g/ha) | Pre-emergence action against LOLRI (Lolium rigidum) | Post-emergence action against AMARE in % (Amaranthus retroflexus [15]; 5 g/ha) | Post-emergence action against AMARE in % (Amaranthus retroflexus [15]; 20 g/ha) | Post-emergence action against MATIN in % (Matricaria inodora [18]; 20 g/ha) | other results |
| --- | --- | --- | --- | --- | --- | --- | --- | --- | --- | --- | --- | --- | --- | --- | --- | --- | --- | --- | --- | --- | --- |
| CCN(C)C(=O)c1c(C(F)(F)F)ccc(C(=O)Nc2nnnn2C)c1C [Example 1-20, N^3-ethyl-N^3-2-dimethyl-N^1-(1-methyl-1H-tetrazol-5-yl)-4-(trifluoromethyl)isophthalamide] | 100% | 90% | 80% | 90% | 100% | 100% | 80% | 100% | 80% | 90% | 90% | 80% | 90% |  |  |  |  |  |  |  | Pre-emergence action against DIGSA (Digitaria sanguinalis [5]): 90%; Post-emergence action against DIGSA in % (Digitaria sanguinalis [10]): 80% |
| CCn1nnnc1NC(=O)c1ccc(C(F)F)c(C(=O)N(C)CC(F)F)c1Cl [Example 2-159] | 100% | 100% | 100% | 100% | 100% | 100% | 80% | 100% | 80% | 90% |  | 90% | 90% | 100% | 90% | 90% | 90% | 100% | 100% | 90% | Pre-emergence action against AVEFA (Avena fatua [13]): 90%; Pre-emergence action against POLCO (Polygonum convolvulus): 90%; Post-emergence action against AVEFA in % (Avena fatua [16]): 90%; Post-emergence action against ECHCG in % (Echinochloa crus-galli [17]; 20 g/ha): 90%; Post-emergence action against MATIN in % (Matricaria inodora [18]; 5 g/ha): 80%; Post-emergence action against VERPE in % (Veronica persica [19]; 20 g/ha): 80%; Post-emergence action against VIOTR in % (Viola tricolor [12]; 5 g/ha): 80% |
| CCn1nnnc1NC(=O)c1ccc(C(F)F)c(C(=O)N(C)C2CC2)c1Cl [Example 2-156] | 100% | 90% | 100% | 100% | 100% | 100% | 90% | 100% |  | 90% | 80% | 80% | 90% | 100% | 100% | 100% | 80% | 100% | 100% | 90% | Pre-emergence action against ALOMY (Alopecurus myosuroides [2]; 20 g/ha): 90%; Pre-emergence action against AVEFA (Avena fatua [13]): 90%; Pre-emergence action against POLCO (Polygonum convolvulus): 90%; Post-emergence action against ALOMY (Alopecurus myosuroides [20]; 20 g/ha): 90%; Post-emergence action against AVEFA in % (Avena fatua [16]): 90%; Post-emergence action against ECHCG in % (Echinochloa crus-galli [17]; 20 g/ha): 90%; Post-emergence action against MATIN in % (Matricaria inodora [18]; 5 g/ha): 90%; Post-emergence action against PHBPU in % (Pharbitis purpurea; 5 g/ha): 80%; Post-emergence action against VERPE in % (Veronica persica [19]; 20 g/ha): 80%; Post-emergence action against VIOTR in % (Viola tricolor [12]; 5 g/ha): 90% |
| CCN(C(=O)c1c(C(F)F)ccc(C(=O)Nc2nnnn2CC)c1Cl)C1CC1 [Example 2-167] | 100% | 100% | 100% | 100% | 100% | 100% |  | 100% | 90% | 90% | 90% | 90% | 100% | 100% | 90% | 100% | 80% | 100% | 100% | 80% | Pre-emergence action against VIOTR (Viola tricolor [8]; 20 g/ha): 80%; Post-emergence action against ALOMY (Alopecurus myosuroides [20]; 5 g/ha): 80%; Post-emergence action against ALOMY (Alopecurus myosuroides [20]; 20 g/ha): 100%; Post-emergence action against AVEFA in % (Avena fatua [16]): 80%; Post-emergence action against ECHCG in % (Echinochloa crus-galli [17]; 20 g/ha): 90%; Post-emergence action against SETVI in % (Setaria viridis [11]; 5 g/ha): 90%; Post-emergence action against VERPE in % (Veronica persica [19]; 20 g/ha): 80% |
| Cc1c(C(=O)Nc2nnnn2C)ccc(C(F)(F)F)c1C(=O)N(C1CC1)C1CC1 [Example 1-40] | 80% |  | 100% | 100% | 90% |  |  | 100% |  |  |  |  |  |  | 80% |  |  | 80% | 80% | 80% | Pre-emergence action against DIGSA (Digitaria sanguinalis [5]): 100%; Post-emergence action against DIGSA in % (Digitaria sanguinalis [10]): 90% |
| CCn1nnnc1NC(=O)c1ccc(C(F)(F)F)c(C(=O)N(C)C2CC2)c1Cl [Example 2-125] | 100% | 100% | 100% | 100% | 100% | 100% |  | 100% |  |  |  |  |  | 90% |  |  |  | 90% | 90% | 90% | Pre-emergence action against DIGSA (Digitaria sanguinalis [5]): 100%; Post-emergence action against ALOMY (Alopecurus myosuroides [20]; 20 g/ha): 80%; Post-emergence action against AVEFA in % (Avena fatua [16]): 80%; Post-emergence action against DIGSA in % (Digitaria sanguinalis [10]): 90% |
| CN(CC(F)F)C(=O)c1c(C(F)F)ccc(C(=O)Nc2nnnn2C)c1Cl [Example 1-159] | 100% | 90% | 100% | 100% | 100% | 100% | 100% | 100% | 90% | 90% | 90% | 100% | 90% | 100% | 100% | 90% | 80% | 100% | 100% | 90% | Pre-emergence action against ALOMY (Alopecurus myosuroides [2]; 20 g/ha): 90%; Pre-emergence action against AVEFA (Avena fatua [13]): 80%; Pre-emergence action against POLCO (Polygonum convolvulus): 80%; Pre-emergence action against VERPE (Veronica persica [7]; 20 g/ha): 90%; Post-emergence action against ALOMY (Alopecurus myosuroides [20]; 5 g/ha): 90%; Post-emergence action against ALOMY (Alopecurus myosuroides [20]; 20 g/ha): 90%; Post-emergence action against ECHCG in % (Echinochloa crus-galli [17]; 5 g/ha): 80%; Post-emergence action against ECHCG in % (Echinochloa crus-galli [17]; 20 g/ha): 90%; Post-emergence action against MATIN in % (Matricaria inodora [18]; 5 g/ha): 80%; Post-emergence action against SETVI in % (Setaria viridis [11]; 5 g/ha): 100%; Post-emergence action against VERPE in % (Veronica persica [19]; 5 g/ha): 80%; Post-emergence action against VERPE in % (Veronica persica [19]; 20 g/ha): 90%; Post-emergence action against VIOTR in % (Viola tricolor [12]; 5 g/ha): 80% |
